# Measured values as given in US7875645B2, “Method for the treatment of CNS disorders with substituted 2-imidazoles or imidazole derivatives” (Hoffman-La Roche Inc., priority 2006, dated 2011).
# Counter-ions that a name gives are not always drawn.
# Test system: not given
# Assay: not given
# Settings: not given
row,SMILES,melting point
1,"Brc1ccc(CC2=NCCN2)c2ccccc12 [Example 104, 2-(4-Bromo-naphthalen-1-ylmethyl)-4,5-dihydro-1H-imidazole]",133 to 135 °C

# Molecular target: T1, TAAR1 (Mus musculus, UniProt Q923Y8)
# T1 construct: expressed in transfected cells; host or cells: HEK293 (ATCC # CRL-1573), stably transfected with pIRESneo2 expression plasmid; membranes prepared
# T1 sequence (Q923Y8 whole entry): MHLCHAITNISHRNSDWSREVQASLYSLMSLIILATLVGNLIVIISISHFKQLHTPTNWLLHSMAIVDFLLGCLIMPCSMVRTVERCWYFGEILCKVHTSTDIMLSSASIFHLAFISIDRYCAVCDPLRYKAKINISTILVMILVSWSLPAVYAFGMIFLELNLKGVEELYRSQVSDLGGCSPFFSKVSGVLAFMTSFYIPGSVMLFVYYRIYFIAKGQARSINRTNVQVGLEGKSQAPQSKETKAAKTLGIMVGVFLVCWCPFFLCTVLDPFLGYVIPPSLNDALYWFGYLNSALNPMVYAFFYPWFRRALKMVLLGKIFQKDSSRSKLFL
# Assay: Radioligand binding assay on membranes of HEK293 cells stably expressing TAAR1
# Settings: mouse TAAR1; radioligand [3H]-rac-2-(1,2,3,4-tetrahydro-1-naphthyl)-2-imidazoline at 60 nM; 4° C., 30 min
# Protocol: For the construction of expression plasmids the coding sequences of human, rat and mouse TAAR 1 were amplified from genomic DNA essentially as described by Lindemann et al.. The Expand High Fidelity PCR System (Roche Diagnostics) was used with 1.5 mM Mg^2+ and purified PCR products were cloned into pCR2.1-TOPO cloning vector (Invitrogen) following the instructions of the manufacturer. PCR products were subcloned into the pIRESneo2 vector (BD Clontech, Palo Alto, Calif.), and expression vectors were sequence verified before introduction in cell lines.
# For the generation of stably transfected cell lines HEK293 cells were transfected with the pIRESneo2 expression plasmids containing the TAAR coding sequences (described above) with Lipofectamine 2000 (Invitrogen) according to the instructions of the manufacturer, and 24 hrs post transfection the culture medium was supplemented with 1 mg/ml G418 (Sigma, Buchs, Switzerland). After a culture period of about 10 d clones were isolated, expanded and tested for responsiveness to trace amines (all compounds purchased from Sigma) with the cAMP Biotrak Enzyme immunoassay (EIA) System (Amersham) following the non-acetylation EIA procedure provided by the manufacturer.
# Cells at confluence were rinsed with ice-cold phosphate buffered saline without Ca^2+ and Mg^2+ containing 10 mM EDTA and pelleted by centrifugation at 1000 rpm for 5 min at 4° C. The pellet was then washed twice with ice-cold phosphate buffered saline and cell pellet was frozen immediately by immersion in liquid nitrogen and stored until use at −80° C. Cell pellet was then suspended in 20 ml HEPES-NaOH (20 mM), pH 7.4 containing 10 mM EDTA, and homogenized with a Polytron (PT 3000, Kinematica) at 10,000 rpm for 10 s. The homogenate was centrifuged at 48,000×g for 30 min at 4° C. and the pellet resuspended in 20 ml HEPES-NaOH (20 mM), pH 7.4 containing 0.1 mM EDTA (buffer A), and homogenized with a Polytron at 10,000 rpm for 10 s. The homogenate was then centrifuged at 48,000×g for 30 min at 4° C. and the pellet resuspended in 20 ml buffer A, and homogenized with a Polytron at 10,000 rpm for 10 s. Protein concentration was determined by the method of Pierce (Rockford, Ill.). The homogenate was then centrifuged at 48,000×g for 10 min at 4° C., resuspended in HEPES-NaOH (20 mM), pH 7.0 including MgCl2 (10 mM) and […] homogenized with a Polytron at 10,000 rpm for 10 s.
# Binding assay was performed at 4° C. in a final volume of 1 ml, and with an incubation time of 30 min. […] Non-specific binding was defined as the amount of [^3H]-rac-2-(1,2,3,4-tetrahydro-1-naphthyl)-2-imidazoline bound in the presence of the appropriate unlabelled ligand (10 μM). Competing ligands were tested in a wide range of concentrations (10 pM-30 μM). […] Each experiment was performed in duplicate. Al incubations were terminated by rapid filtration through UniFilter-96 plates (Packard Instrument Company) and glass filter GF/C, pre-soaked for at least 2 h in polyethylenimine 0.3%, and using a Filtermate 96 Cell Harvester (Packard Instrument Company). The tubes and filters were then washed 3 times with 1 ml aliquots of cold buffer B. Filters were not dried and soaked in Ultima gold (45 μl/well, Packard Instrument Company) and bound radioactivity was counted by a TopCount Microplate Scintillation Counter (Packard Instrument Company).
row,SMILES,Ki
1,"Brc1ccc(CC2=NCCN2)c2ccccc12 [Example 104, 2-(4-Bromo-naphthalen-1-ylmethyl)-4,5-dihydro-1H-imidazole]",0.008 µM
2,"Nc1c(Cl)cc(CC2=NCCN2)cc1Cl [Example 125, 2,6-Dichloro-4-(4,5-dihydro-1H-imidazol-2-ylmethyl)-phenylamine, reference compound]",0.048 µM
3,"COc1cccc(Cl)c1CC1=NCCN1 [Example 55, 2-(2-Chloro-6-methoxy-benzyl)-4,5-dihydro-1H-imidazole]",0.017 µM
4,"CCc1cccc(OC)c1CC1=NCCN1 [Example 9, 2-(2-Ethyl-6-methoxy-benzyl)-4,5-dihydro-1H-imidazole]",0.01 µM
5,"Cc1cc(C(C)(C)C)c(O)c(C)c1CC1=NCCN1 [Example 117, 6-tert-Butyl-3-(4,5-dihydro-1H-imidazol-2-ylmethyl)-2,4-dimethyl-phenol, reference compound]",0.008 µM
6,"Brc1c(CC2=NCCN2)ccc2ccccc12 [Example 175, 2-(1-Bromo-naphthalen-2-ylmethyl)-4,5-dihydro-1H-imidazole]",0.011 µM
7,"COc1cc(C)c(CC2=NCCN2)c(C)c1 [Example 123, 2-(4-Methoxy-2,6-dimethyl-benzyl)-4,5-dihydro-1H-imidazole]",0.028 µM
8,"CCOc1ccc(CC)c(Cc2ncc[nH]2)c1CC [Example 217, 2-(3-Ethoxy-2,6-diethyl-benzyl)-1H-imidazole]",0.024 µM
9,"CCc1ccc(OCc2ccccc2)c(CC)c1Cc1ncc[nH]1 [Example 218, 2-(3-Benzyloxy-2,6-diethyl-benzyl)-1H-imidazole]",0.047 µM
10,"Cc1sc(C)c(CC2=NCCN2)c1C [Example 109, 2-(2,4,5-Trimethyl-thiophen-3-ylmethyl)-4,5-dihydro-1H-imidazole]",0.004 µM
11,"CCc1cccc(CC)c1Cc1ncc[nH]1 [Example 70, 2-(2,6-Diethyl-benzyl)-1H-imidazole]",0.025 µM
12,"c1ccc2c(CC3=NCCN3)cccc2c1 [Example 140, 2-Naphthalen-1-ylmethyl-4,5-dihydro-1H-imidazole, reference compound]",0.007 µM
13,"Cc1cc(C)c(Cc2ncc[nH]2)c(C)c1 [Example 137, 2-(2,4,6-Trimethyl-benzyl)-1H-imidazole]",0.038 µM
14,"Oc1ccc2ccccc2c1CC1=NCCN1 [Example 172, 1-(4,5-Dihydro-1H-imidazol-2-ylmethyl)-naphthalen-2-ol hydrochloride]",0.05 µM
15,"Cc1c(C)c(C)c(CC2=NCCN2)c(C)c1C [Example 115, 2-Pentamethylphenylmethyl-4,5-dihydro-1H-imidazole]",0.007 µM
16,"c1cc(CC2=NCCN2)c2ccoc2c1 [Example 168, 2-Benzofuran-4-ylmethyl-4,5-dihydro-1H-imidazole hydrochloride]",0.045 µM
17,"COc1c(CC2=NCCN2)ccc2occc12 [Example 169, 2-(4-Methoxy-benzofuran-5-ylmethyl)-4,5-dihydro-1H-imidazole hydrochloride]",0.045 µM
18,"FC(F)(F)c1cccc(CC2=NCCN2)c1Cl [Example 59, 2-(2-Chloro-3-trifluoromethyl-benzyl)-4,5-dihydro-1H-imidazole]",0.041 µM
